Publication PMC8494430, “Development of a fluorogenic ADAMTS-7 substrate” (Journal of Enzyme Inhibition and Medicinal Chemistry, 2021)

Assays:
ADAMTS-7 [1] = target: T1, ADAMTS-7 (Homo sapiens, UniProt Q9UKP4); assay: Inhibition of ADAMTS-7 cleavage of FRET substrate ATS7FP7; type: biochemical
T1 construct: the recombinant construct ADAMTS7-T8, which lacks the C-terminal PLAC domain; made in house
T1 sequence (Q9UKP4 237-1631 limits assumed): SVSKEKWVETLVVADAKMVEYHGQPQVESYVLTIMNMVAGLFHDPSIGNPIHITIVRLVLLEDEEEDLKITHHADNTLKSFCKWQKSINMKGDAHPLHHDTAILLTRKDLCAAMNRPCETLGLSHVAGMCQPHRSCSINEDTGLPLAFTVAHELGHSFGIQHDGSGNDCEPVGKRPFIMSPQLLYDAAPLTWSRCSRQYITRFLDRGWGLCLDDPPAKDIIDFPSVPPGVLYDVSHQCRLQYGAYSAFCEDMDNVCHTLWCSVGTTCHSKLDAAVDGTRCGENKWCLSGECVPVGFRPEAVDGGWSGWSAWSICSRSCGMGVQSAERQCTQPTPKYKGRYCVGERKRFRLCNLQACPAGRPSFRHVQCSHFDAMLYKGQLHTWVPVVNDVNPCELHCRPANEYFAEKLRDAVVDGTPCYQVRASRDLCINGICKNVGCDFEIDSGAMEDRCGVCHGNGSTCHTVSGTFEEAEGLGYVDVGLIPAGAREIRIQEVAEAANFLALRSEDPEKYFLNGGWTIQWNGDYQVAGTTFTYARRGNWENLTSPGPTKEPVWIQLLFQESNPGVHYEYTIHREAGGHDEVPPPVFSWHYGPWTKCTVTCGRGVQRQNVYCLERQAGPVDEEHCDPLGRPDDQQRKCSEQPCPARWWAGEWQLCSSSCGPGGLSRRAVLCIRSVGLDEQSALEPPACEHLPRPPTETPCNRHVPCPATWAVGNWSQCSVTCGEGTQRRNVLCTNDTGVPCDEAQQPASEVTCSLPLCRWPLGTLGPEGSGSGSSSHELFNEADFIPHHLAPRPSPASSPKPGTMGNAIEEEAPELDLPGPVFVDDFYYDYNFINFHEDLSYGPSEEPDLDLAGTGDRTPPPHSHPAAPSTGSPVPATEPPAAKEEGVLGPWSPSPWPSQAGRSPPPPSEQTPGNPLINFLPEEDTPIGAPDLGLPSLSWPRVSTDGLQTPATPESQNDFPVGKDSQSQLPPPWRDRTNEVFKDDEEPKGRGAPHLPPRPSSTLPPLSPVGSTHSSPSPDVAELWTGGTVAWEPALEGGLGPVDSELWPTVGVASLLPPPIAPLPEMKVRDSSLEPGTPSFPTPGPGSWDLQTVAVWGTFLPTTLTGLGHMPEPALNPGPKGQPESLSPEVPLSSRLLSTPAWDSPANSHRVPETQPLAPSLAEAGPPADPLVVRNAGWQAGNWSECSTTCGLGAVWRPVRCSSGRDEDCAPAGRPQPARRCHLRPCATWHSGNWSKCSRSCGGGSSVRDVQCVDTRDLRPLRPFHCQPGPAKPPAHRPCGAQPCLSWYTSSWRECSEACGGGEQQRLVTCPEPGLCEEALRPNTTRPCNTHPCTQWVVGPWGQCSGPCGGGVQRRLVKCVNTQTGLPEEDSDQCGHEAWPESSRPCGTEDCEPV
Description: All enzyme assays were conducted in TNC-B buffer (50 mM Tris- HCl, pH 7.5, 150 mM NaCl, 10 mM CaCl2, and 0.02% NaN3) at 37 °C in 384 well plates (Cat. No: 784900, Greiner Bio-One, Austria). To avoid the formation of inhibitor or peptide aggregates, the detergent Brij-35 (0.05%) was added to TNC-B[13]. For inhibition studies, stock solutions of chemical compounds were prepared in dimethyl sulfoxide (DMSO) (10 mM). […] Blank samples were prepared using buffer only and the rate of cleavage for blank reactions was subtracted from the rates measured in the presence of enzyme. Upon addition of the indicated ADAMTS-7 FRET substrates (40 µM), the fluorescence was measured immediately using a FLUOstar Omega microplate reader (BMG Labtech, Germany) with an excitation filter wavelength of 485 nm and an emission filter wavelength of 520 nm.

ADAMTS-7 [2] = target: T1, ADAMTS-7; assay: Cleavage of FRET peptides by ADAMTS-7 (kinetic constants, cleavage rate); type: biochemical; details: 37 °C
Description: All enzyme assays were conducted in TNC-B buffer (50 mM Tris- HCl, pH 7.5, 150 mM NaCl, 10 mM CaCl2, and 0.02% NaN3) at 37 °C in 384 well plates (Cat. No: 784900, Greiner Bio-One, Austria). To avoid the formation of inhibitor or peptide aggregates, the detergent Brij-35 (0.05%) was added to TNC-B[13]. For inhibition studies, stock solutions of chemical compounds were prepared in dimethyl sulfoxide (DMSO) (10 mM). These were further diluted at different concentrations in TNC-B and incubated with ADAMTS-1, ADAMTS-4, ADAMTS-5, ADAMTS-7 or ADAMTS-8 (10 nM) for 1 h at 37 °C. Blank samples were prepared using buffer only and the rate of cleavage for blank reactions was subtracted from the rates measured in the presence of enzyme. Upon addition of the indicated ADAMTS-7 FRET substrates (40 µM), the fluorescence was measured immediately using a FLUOstar Omega microplate reader (BMG Labtech, Germany) with an excitation filter wavelength of 485 nm and an emission filter wavelength of 520 nm.
Relative Fluorescence Units (RFU) were converted into product concentration by dividing for the number of RFU generated upon complete digestion of 2.5 µM substrate. kcat values were determined by dividing Vmax by [E]t. Correction for inner filter effects was performed as before.

[3] = cleavage of ATS7FP7 by ADAMTS-7 (10 nM)

Compound: O=C(NCCC[C@@H](NS(=O)(=O)c1ccc(OCc2ccc(F)cc2Cl)cc1)C(=O)NO)c1ccccc1 [EDV33]
- IC50 (ADAMTS-7 [1]; ATS7FP7 40 μM, 1 h preincubation, 37 °C): 330 ± 70 nM
- increase of ADAMTS-7 inhibition relative to JG23 (ADAMTS-7 [1]; against ATS7FP7): approximately 2 fold
- Ki (ADAMTS-7 [1]; read-out: Ki app (ATS7FP7 substrate)): 68 ± 14 nM

Compound: Glu-Ala-Ala-Ala-Arg↓Ala-Glu↓Ala-Ala-Ala-Lys [ATS7FP7]
- cleavage rate by ADAMTS-7 (ADAMTS-7 [2]; FRET peptides 40 μM, ADAMTS-7 10 nM): increased compared to that of ATS7FP0
- Km (ADAMTS-7 [2]; [3]): 10.5 ± 1.5 µM
- kcat (ADAMTS-7 [2]; [3]): 0.035 ± 0.0017 s⁻¹
